Assay results from ChEMBL document CHEMBL1158432, “A novel photoaffinity ligand for the dopamine transporter based on pyrovalerone” (Bioorg Med Chem, 2009).
Calls of active or inactive are those of the source. The calls are words filed in the database; no cut-off is given here.

Assays:
Assay type in all cases: cell-based
[1] = target: T1, Sodium-dependent dopamine transporter (Homo sapiens, UniProt Q01959); test: Displacement of [3H]WIN-35428 from human dopamine transporter expressed in mouse N2A cells by scintillation counting
[2] = target: T1, Sodium-dependent dopamine transporter; test: Inhibition of [3H]dopamine uptake at human dopamine transporter expressed in mouse N2A cells by scintillation counting
[3] = target: Sodium-dependent dopamine transporter (Rattus norvegicus) (UniProt P23977); test: Binding affinity to rat dopamine transporter expressed in pig LLC-PK1 cells assessed as drug incorporation at 30 nM after 1 hr by SDS-PAGE analysis in presence of cocaine; conditions: tested as the 125I-labelled form
[4] = target: Sodium-dependent dopamine transporter (Rattus norvegicus) (UniProt P23977); test: Binding affinity to rat dopamine transporter expressed in pig LLC-PK1 cells assessed as drug incorporation at 30 nM after 1 hr by SDS-PAGE analysis; conditions: tested as the 125I-labelled form

T1 sequence (Q01959 whole entry): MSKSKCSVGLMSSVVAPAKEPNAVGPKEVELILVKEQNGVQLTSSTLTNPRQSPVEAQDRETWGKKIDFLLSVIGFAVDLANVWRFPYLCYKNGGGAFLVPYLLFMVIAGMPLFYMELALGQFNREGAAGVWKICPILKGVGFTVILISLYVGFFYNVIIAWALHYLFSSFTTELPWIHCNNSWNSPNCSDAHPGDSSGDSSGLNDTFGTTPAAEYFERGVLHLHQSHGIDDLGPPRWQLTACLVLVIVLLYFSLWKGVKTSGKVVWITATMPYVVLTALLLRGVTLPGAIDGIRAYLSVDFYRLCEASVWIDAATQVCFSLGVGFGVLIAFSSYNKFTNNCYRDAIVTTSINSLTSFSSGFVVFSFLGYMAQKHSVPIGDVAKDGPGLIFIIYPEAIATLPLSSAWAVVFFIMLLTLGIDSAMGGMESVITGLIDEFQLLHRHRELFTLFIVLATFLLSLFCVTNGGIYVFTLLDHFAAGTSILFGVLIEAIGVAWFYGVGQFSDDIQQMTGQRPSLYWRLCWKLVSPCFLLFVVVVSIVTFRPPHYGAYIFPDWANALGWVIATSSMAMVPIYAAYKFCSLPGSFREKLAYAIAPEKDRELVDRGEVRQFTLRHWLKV
Sequence of Sodium-dependent dopamine transporter (Rattus norvegicus) (P23977 whole entry): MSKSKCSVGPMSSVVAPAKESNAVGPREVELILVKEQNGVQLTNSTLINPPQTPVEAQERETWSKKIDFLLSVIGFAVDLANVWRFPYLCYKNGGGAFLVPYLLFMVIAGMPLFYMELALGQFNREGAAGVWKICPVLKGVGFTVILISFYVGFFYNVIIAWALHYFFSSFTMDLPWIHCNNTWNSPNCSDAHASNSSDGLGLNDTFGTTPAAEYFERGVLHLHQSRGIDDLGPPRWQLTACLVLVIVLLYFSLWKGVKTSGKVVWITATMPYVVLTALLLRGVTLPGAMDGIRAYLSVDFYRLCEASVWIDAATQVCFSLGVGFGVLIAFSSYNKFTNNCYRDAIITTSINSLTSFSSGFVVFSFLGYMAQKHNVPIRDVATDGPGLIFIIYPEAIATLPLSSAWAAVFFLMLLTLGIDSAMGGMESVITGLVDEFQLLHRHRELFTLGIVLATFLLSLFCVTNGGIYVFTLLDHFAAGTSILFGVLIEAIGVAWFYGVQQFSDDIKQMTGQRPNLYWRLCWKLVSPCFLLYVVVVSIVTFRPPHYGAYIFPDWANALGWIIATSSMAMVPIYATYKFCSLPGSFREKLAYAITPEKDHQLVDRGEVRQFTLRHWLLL

SMILES	Ki [1]	IC50 [2]	Activity [3]	Activity [4]
CCCC(C(=O)c1ccc(N)c(I)c1)N1CCCC1 (stereo not given)	28 nM	175 nM	–	–
CCCC(C(=O)c1ccc(C)cc1)N1CCCC1 (stereo not given) [PYROVALERONE]	8 nM	32 nM	–	–
CCCC(C(=O)c1ccc(N)cc1)N1CCCC1 (stereo not given)	5 nM	7 nM	–	–
CCCC(C(=O)c1ccc(N=[N+]=[N-])c(I)c1)N1CCCC1 (stereo not given)	78 nM	264 nM	inactive	Active
